From ChEMBL document CHEMBL4020813, “The ProTide Prodrug Technology: From the Concept to the Clinic” (J Med Chem, 2018) come the findings set out here.

Series [1] can be described thus: Tmax in po dosed human. In kind it is ADME, organism-based. As to conditions: in vivo.
A short description of series [2]: Half life in po dosed human. In kind it is ADME, organism-based. The following applies: in vivo.
A further series deals with JM1. Nature of the series: Cytotoxicity against human JM1 cells. The class given is cell-based.
Series [3] deals with Human immunodeficiency virus 1. As to the kind of experiment: Antiviral activity against HIV1 infected in human JM1 cells. As to conditions: Human immunodeficiency virus 1, JM1. In kind it is functional, cell-based.
In series [4] the test system is Ebolavirus. As to the kind of experiment: Antiviral activity against Ebolavirus infected in human primary macrophages after 48 hrs by immuno-staining assay. In kind it is functional. As to conditions: Orthoebolavirus.
For series [5], the system named is Ebolavirus. As to the kind of experiment: Antiviral activity against Ebolavirus infected in human HeLa cells after 48 hrs by immuno-staining assay. The following applies: Orthoebolavirus. In kind it is functional, cell-based.
Series [6] deals with Ebolavirus. As to the kind of experiment: Antiviral activity against Ebolavirus H. sapiens-tc/COD/1995/Kikwit infected in rhesus monkey assessed as host survival at 3 mg/kg, iv administered as bolus dose. In kind it is functional. The following applies: Orthoebolavirus, in Macaca mulatta.
Series [7] in a line: Cytotoxicity against human HeLa after 4 to 5 days by Cell-Titer Glo viability assay. The class given is cell-based. As to conditions: HeLa cells.
The nature of series [8]: Half life in human primary macrophages assessed as nucleoside triphosphate level at 10 uM. In kind it is ADME, cell-based. As to conditions: macrophage.
The subject of series [9] is Ebolavirus. As to the kind of experiment: Antiviral activity against Ebolavirus H. sapiens-tc/COD/1995/Kikwit infected in rhesus monkey assessed as host survival at 10 mg/kg, iv administered as bolus dose. The class given is functional. The following applies: Orthoebolavirus, in Macaca mulatta.
Series [10] in a line: Cytotoxicity against human HuH7 after 4 to 5 days by Cell-Titer Glo viability assay. As to conditions: HuH7 cells. In kind it is cell-based, Huh-7.
For series [11], the system named is Ebolavirus. As to the kind of experiment: Antiviral activity against Ebolavirus infected in human HuH7 cells after 3 days by end point dilution assay. In kind it is functional, cell-based. As to conditions: Orthoebolavirus, Huh-7, 72 h.
Series [12] is described as follows: Cytotoxicity against human primary macrophages after 4 to 5 days by Cell-Titer Glo viability assay. In kind it is cell-based, Macrophage.
Series [13] is described as follows: Half life in rhesus monkey plasma at 10 mg/kg, iv administered as bolus dose by LC-MS/MS analysis. The class given is ADME, organism-based, Macaca mulatta.
In a further series the test system is HT-29. As to the kind of experiment: Antitumor activity against human HT-29 cells xenografted in nude mouse assessed as tumor growth inhibition relative to control. In kind it is functional. For orientation: A xenograft is tissue or cells of one species grown in another, often human tumour cells in immunodeficient mice.
A short description of series [14]: Half life in human. In kind it is ADME.
Series [15] is filed under the species Homo sapiens. As to the kind of experiment: Reduction in tumor growth in patient with solid malignancies. The class given is functional.
The species named for series [16] is Homo sapiens. As to the kind of experiment: Cmax in human assessed as dFdCTP level. In kind it is ADME.
A short description of series [17]: Renal clearance in human at 100 to 800 mg. The class given is ADME.
A short description of series [18]: Oral bioavailability in portal vein cannulated dog. In kind it is ADME, organism-based, Canis lupus familiaris. As to conditions: in vivo.
The nature of series [19]: Protein binding in human plasma. The class given is ADME, cell-free. As to conditions: read-out: PPB (converted).
The nature of series [20]: Fraction absorbed in human. In kind it is ADME. As to conditions: read-out: Fabs.
A short description of series [21]: Fraction absorbed in po dosed portal vein cannulated dog. The following applies: in vivo, read-out: Fabs. The class given is ADME, organism-based, Canis lupus familiaris.
The nature of series [22]: Drug recovery in human urine at 100 to 800 mg. The class given is ADME. As to conditions: read-out: Drug recovery.
Another series has as its system Plasma. Nature of the series: Protein binding in plasma of patient with end stage renal disease. The following applies: human. The class given is ADME, cell-free.
Series [23] can be described thus: Half life in beagle dog intestine.
Series [24] can be described thus: Half life in human MT2 cells by HPLC analysis.
A short description of series [25]: Plasma concentration in dog at 5 mg/kg at 0.14 hrs post dose.
Series [26] can be described thus: Half life in beagle dog hepatic S9 fraction.
Series [27] in a line: Plasma concentration in dog at 5 mg/kg at 1 hr post dose.
The nature of series [28]: in vivo. The following applies: dog, po, 2 mg/kg.
Series [29] in a line: in vivo. As to conditions: dog, po, 20 mg/kg.

pEC50, pIC50: −log10 of the molar value. A value given as a limit tells only on which side of the number the result lay.

For `C[C@]1(F)[C@H](O)[C@@H](CO)O[C@H]1n1ccc(=O)[nH]c1=O`, the Tmax in series [1] fell in the range of 120 to 240 min. In [2], this molecule registered a half-life of 28.8 to 45 min.

In the case of `COC(=O)[C@H](C)NP(=O)(OC[C@H]1O[C@@H](n2cc(C)c(=O)[nH]c2=O)C[C@@H]1N=[N+]=[N-])Oc1ccc(OC)cc1` (stereo partly specified), in the series with JM1, the negative-log IC50 (pIC50) was 4.00. Moreover, the pEC50 in [3] was 6.10.

Turning to `CCC(CC)COC(=O)[C@H](C)N[P@](=O)(OC[C@H]1O[C@@](C#N)(c2ccc3c(N)ncnn23)[C@H](O)[C@@H]1O)Oc1ccccc1`, the results for the pEC50 with Ebolavirus [4], in the series with Ebolavirus [5] and in the series with Ebolavirus [11] were 7.07, 6.85 and 7.15, respectively. The survival at 3 mg/kg in the series with Ebolavirus [6] amounted to 50%. The CC50 in series [7], in [10] and in [12] was above 20 µM throughout. For the same molecule, in series [8], the t1/2 was determined as 960 min. Further, the survival at 10 mg/kg with Ebolavirus [9] stood at 100%. Moreover, in [13], the half-life is 23.4 min.

`O=c1[nH]cc(F)c(=O)[nH]1` [FLUOROURACIL]: the TGI in the series with HT-29 amounted to 25%.

Molecule `C[C@H](NP(=O)(OC[C@H]1O[C@@H](n2ccc(N)nc2=O)C(F)(F)[C@@H]1O)Oc1ccccc1)C(=O)OCc1ccccc1` (stereo partly specified) [FOSGEMCITABINE PALABENAMIDE] had a half-life in series [14] of 498 min. In the series filed under Homo sapiens [15], this molecule had a TGI above 30%. The peak concentration (Cmax) in the series filed under Homo sapiens [16] was determined as 475 µM.

Turning to `C[C@H](NP(=O)(OC[C@H]1O[C@@H](n2cc(F)c(=O)[nH]c2=O)C[C@@H]1O)Oc1cccc2ccccc12)C(=O)OCc1ccccc1` (stereo partly specified) [FOSIFLOXURIDINE NAFALBENAMIDE], the TGI in the series with HT-29 amounted to 47%.

Take `N#C[C@@]1(c2ccc3c(N)ncnn23)O[C@H](CO)[C@@H](O)[C@H]1O` [GS-441524]: the results for the pEC50 in the series on Ebolavirus [4], in the series with Ebolavirus [5] and in the series on Ebolavirus [11] were below 4.70, below 4.70 and 5.82, respectively. Also, the CC50 in [7], in [10] and in series [12] was above 20 µM in each case.

For the molecule `CC(C)OC(=O)[C@H](C)N[P@](=O)(OC[C@H]1O[C@@H](n2ccc(=O)[nH]c2=O)[C@](C)(F)[C@@H]1O)Oc1ccccc1` [SOFOSBUVIR], the time of peak concentration (Tmax) in series [1] is 30 to 120 min. Moreover, in series [17], the CL renal turned out to be 238 mL/min. The bioavailability in [18] worked out at 9.9%. The fraction unbound in series [19] is 0.18. The Fa in series [20] was above 80%; in series [21] it was 36%. Further, the dose excreted in [22] worked out at 3.5%. The same molecule had a PPB in the series with Plasma of 85%.

Consider `CC(C)OC(=O)[C@H](C)N[P@](=O)(CO[C@H](C)Cn1cnc2c(N)ncnc21)Oc1ccccc1` [TENOFOVIR ALAFENAMIDE], for which the half-life came out at 31 min in [23], 28.3 min in [24], 31 min in series [26] and 92 min in [14]. Further, the concentration at […] in series [25] was found to be 1.58 µM. Further, the concentration at 1 h in series [27] was determined as 18 µM. For the same molecule, the bioavailability in the series “in vivo [28]” came to 1.7%; in “in vivo [29]” it was 24.7%.

Usually Tmax stands for the time at which the peak concentration occurs. One may read the half-life as how long it takes for the measured level to halve. In general, pIC50 refers to the negative decadic logarithm of the IC50, by convention in mol/L. A word on the pEC50: it is the negative decadic logarithm of the EC50, by convention in mol/L. A word on the CC50: it is the concentration that lowers cell viability or growth by half. As usually defined, the TGI is the reduction of tumour growth relative to the control group. The Cmax is the peak of the concentration-time curve. The term bioavailability denotes the share of a dose that reaches the circulation, judged against a reference dose that is usually intravenous.
